Experimental data reported in US20240239794A1, “PKC-Theta Modulators” (Exscientia AI Limited, priority 2021, published 2024).
Read-outs that look alike come from different tables or passages of the source.

Key:
[1] = tested on: IL-2 secretion by human effector memory T cells (TEM); assay: Effector memory T cells IL-2 release assay; format: cell-based; conditions: T-cell, human CD4+ TEM cells, CD3/CD28 bead stimulation, 24 h
In short: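 IC50 values come from a 4-parameter fit of HTRF-measured IL-2 against 10 semi-log doses, relative to maximal IL-2 in each experiment. Donor-derived CD4+ TEM cells were bead-stimulated (anti-CD3/CD28) with compound for 24 h at 37° C; cytotoxicity was excluded by viability dye staining.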

[2] = biological target: Recombinant human PKC-delta (His-tagged 345-676) (Homo sapiens (Human), UniProt Q05655); assay: PKC-delta inhibition assay (HTRF KinEASE kit), PKC-theta/PKC-delta selectivity; format: biochemical; conditions: ratio; for PKC-theta/PKC-delta selectivity: PKC-theta over PKC-delta, HTRF assays; for PKC-theta/PKC-delta selectivity (binned): binned A to G
Sequence of Recombinant human PKC-delta (His-tagged 345-676) (Q05655 345-676): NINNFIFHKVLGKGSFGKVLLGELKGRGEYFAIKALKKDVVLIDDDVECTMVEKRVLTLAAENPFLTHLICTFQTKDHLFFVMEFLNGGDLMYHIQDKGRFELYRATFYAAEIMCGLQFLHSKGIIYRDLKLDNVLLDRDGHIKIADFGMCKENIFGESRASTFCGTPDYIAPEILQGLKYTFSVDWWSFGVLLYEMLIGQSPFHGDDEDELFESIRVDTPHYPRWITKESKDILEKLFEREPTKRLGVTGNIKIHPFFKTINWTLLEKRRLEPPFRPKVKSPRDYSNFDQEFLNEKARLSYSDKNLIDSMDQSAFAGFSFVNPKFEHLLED
In short: (§1)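 Ten semi-log compound doses were fitted by 4-parameter logistic to HTRF acceptor/donor ratios for IC50. Reactions at 25° C used 6.5 μM ATP and 525 nM STK substrate for 30 min (PKC-theta) or 5.7 μM ATP and 243 nM substrate for 20 min (PKC-delta), after 30 min on-ice enzyme–compound preincubation at 10 ng/ml enzyme.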

[3] = biological target: Recombinant human PKC-theta (His-tagged 362-706) (Homo sapiens (Human), UniProt Q04759); assay: PKC-theta inhibition assay (HTRF KinEASE kit); format: biochemical; conditions: ATP 6.5 μM
Sequence of Recombinant human PKC-theta (His-tagged 362-706) (Q04759 362-706): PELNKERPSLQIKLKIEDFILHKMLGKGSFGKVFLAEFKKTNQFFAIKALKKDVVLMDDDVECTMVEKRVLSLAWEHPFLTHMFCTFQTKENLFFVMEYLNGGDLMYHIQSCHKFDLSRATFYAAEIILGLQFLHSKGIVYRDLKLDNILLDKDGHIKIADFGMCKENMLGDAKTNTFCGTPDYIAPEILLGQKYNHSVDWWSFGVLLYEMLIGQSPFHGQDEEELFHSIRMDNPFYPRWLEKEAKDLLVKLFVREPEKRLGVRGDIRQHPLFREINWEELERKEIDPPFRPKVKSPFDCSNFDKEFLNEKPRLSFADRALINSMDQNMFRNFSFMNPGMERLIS
In short: as §1

[4] = binned A to G, read-out: PKC-theta IL2 pIC50 (binned) (converted)
[5] = read-out: PKC-theta IL2 pIC50 (converted)
[6] = binned A to H, read-out: PKC-theta HTRF pIC50 (binned) (converted)
[7] = read-out: PKC-theta HTRF pIC50 (converted)

Row | SMILES | IC50 [1, 4] [µM] | IC50 [1, 5] [µM] | PKC-theta/PKC-delta selectivity [2] | PKC-theta/PKC-delta selectivity (binned) [2] | PKC-theta HTRF pIC50 [3] | IC50 [3, 6] [µM] | IC50 [3, 7] [µM]
1 | CC1(C)C(=O)Nc2nccc(-c3nn([C@H]4CCNC4)c4cc(C(F)(F)F)ccc34)c21 [Example 74] | 0.316 to 1 | 0.631 | 33 | B (B means a ratio of between 30 and 50) | 6.5 | 0.1 to 0.316 | 
2 | CC[C@]1(O)C(=O)Nc2nccc(-c3nn(C4(CC#N)CCC4)c4ccccc34)c21 (single isomer, unassigned) [Example 69] | > 1 | 1.26 | 9 | E (E means a ratio of between 5 and 10) |  | 0.0316 to 0.1 | 0.1
3 | CC[C@]1(C)C(=O)Nc2nccc(-c3nn([C@@H]4CCNC[C@@H]4F)c4ccc(F)cc34)c21 (single isomer, unassigned) [Example 98] | > 1 | 1 | 57 | A (A means a ratio of between 50 and 120) |  | 0.01 to 0.0316 | 0.0316
4 | CO[C@]1(C)C(=O)Nc2nccc(-c3nn(C4(CC#N)CCC4)c4ccccc34)c21 (single isomer, unassigned) [Example 81] | 0.316 to 1 | 0.794 | 20 | C (C means a ratio of between 20 and 30) |  | 0.0316 to 0.1 | 0.0316
5 | CC1(C)C(=O)Nc2nccc(-c3nn(C4(CF)CCNC4)c4ccccc34)c21 (stereo not drawn) [Example 77] | 0.01 to 0.0316 | 0.0126 | 11 | D (D means a ratio of between 10 and 20) | 9.0 | ≤ 0.001 | 
6 | CC1(C)C(=O)Nc2nccc(-c3nn([C@H]4CCNC[C@@H]4F)c4ccccc34)c21 (racemic) [Example 36] | 0.1 to 0.316 | 0.126 | 14 | D (D means a ratio of between 10 and 20) | 8.3 | 0.00316 to 0.01 | 
7 | CC1(O)C(=O)Nc2nccc(-c3nn(C4CCNCC4)c4ccccc34)c21 (stereo not drawn) [Example 26] | 0.0316 to 0.1 | 0.0794 | 11 | D (D means a ratio of between 10 and 20) | 8.5 | 0.00316 to 0.01 | 
8 | C[C@@]1(O)C(=O)Nc2nccc(-c3nn([C@@H]4CCNC[C@@H]4F)c4ccccc34)c21 (single isomer, unassigned) [Example 50] | 0.01 to 0.0316 | 0.02 | 11 | D (D means a ratio of between 10 and 20) |  | ≤ 0.001 | 0.000794
9 | CO[C@@]1(C)C(=O)Nc2nccc(-c3nn(C4(CC#N)CCC4)c4ccccc34)c21 (single isomer, unassigned) [Example 80] | 0.01 to 0.0316 | 0.02 | 9 | E (E means a ratio of between 5 and 10) |  | ≤ 0.001 | 0.000794
10 | CC[C@@]1(OC)C(=O)Nc2nccc(-c3nn(CC4(F)CCNCC4)c4ccccc34)c21 (single isomer, unassigned) [Example 88] | 0.1 to 0.316 | 0.2 | 14 | D (D means a ratio of between 10 and 20) |  | 0.00316 to 0.01 | 0.00398
11 | CN1CCOCC1(C)Cn1nc(-c2ccnc3c2C(C)(C)C(=O)N3)c2ccccc21 (stereo not drawn) [Example 63] | > 1 | 1.26 | 17 | D (D means a ratio of between 10 and 20) | 7.5 | 0.01 to 0.0316 | 
12 | C[C@@]1(O)C(=O)Nc2nccc(-c3nn(C4(CC#N)CCC4)c4c(F)cccc34)c21 (single isomer, unassigned) [Example 58] | 0.01 to 0.0316 | 0.01 | 18 | D (D means a ratio of between 10 and 20) |  | ≤ 0.001 | 0.000501

Results, then the compound that gave them:

Row | IC50 [1, 4] [µM] | IC50 [1, 5] [µM] | PKC-theta/PKC-delta selectivity [2] | PKC-theta/PKC-delta selectivity (binned) [2] | PKC-theta HTRF pIC50 [3] | IC50 [3, 6] [µM] | IC50 [3, 7] [µM] | SMILES
13 | 0.0316 to 0.1 | 0.1 | 29 | C (C means a ratio of between 20 and 30) |  | 0.00316 to 0.01 | 0.00794 | CC[C@]1(C)C(=O)Nc2nccc(-c3nn([C@H]4CCNC[C@H]4F)c4ccc(F)cc34)c21 (single isomer, unassigned) [Example 100]
14 | 0.0316 to 0.1 | 0.0398 | 23 | C (C means a ratio of between 20 and 30) |  | 0.001 to 0.00316 | 0.00251 | CC[C@@]1(C)C(=O)Nc2nccc(-c3nn([C@@H]4CCNC[C@@H]4F)c4ccc(F)cc34)c21 (single isomer, unassigned) [Example 97]
15 | 0.1 to 0.316 | 0.126 | 19 | D (D means a ratio of between 10 and 20) |  | 0.00316 to 0.01 | 0.00794 | CO[C@]1(C)C(=O)Nc2nccc(-c3nn([C@H]4CCNC[C@H]4F)c4ccccc34)c21 (single isomer, unassigned) [Example 91]
16 | 0.316 to 1 | 0.398 | 7 | E (E means a ratio of between 5 and 10) | 8.0 | 0.01 to 0.0316 |  | CC1(O)C(=O)Nc2nccc(-c3cn([C@@H]4CCNC4)c4ccccc34)c21 (stereo partly drawn) [Example 111]
